Source: US20100197752A1, “UROCANIC ACID DERIVATIVES USEFUL FOR THE TREATMENT OF IMMUNE-RELATED AND INFLAMMATORY DISEASES” (priority 2007, published 2010)

Columns and labels:
BALB/c mice = assay: Suppression of prolonged contact hypersensitivity (P-CHS), oxazolone-induced ear swelling; format: in vivo; conditions: for sequence from high to low effectiveness, suppressive effect on P-CHS response (ear swelling): BALB/c mice, oxazolone, topical twice daily, averaged from 2-3 experiments, compared to placebo (100% ear swelling), FIG. 3; for immunosuppressive, e.g. anti-inflammatory properties (efficacy): conclusion from P-CHS in BALB/c mice, topical application
Protocol: Suppression of prolonged contact hypersensitivity (P-CHS) by ethyl imidazole-4-acetate in BALB/c mice.
Ethyl imidazole-4-acetate was dissolved in ethanol/water 1:1 in a concentration of 5%. The topical application of ethanol/water 1:1 alone served as full-response control. Ethanol/water test solutions were topically applied with a pipette in aliquots of 20 μL/ear.
Mice were sensitized with 10 μl 1% oxazolone in acetone on […] in all experiments on the outside of both ears. On day 0 mice were challenged with 10 μl 0.5% oxazolone in acetone on both ears. Repeated elicitations were applied on day 2, 4, 7, 9. Applied oxazolone concentrations in acetone were 0.5%, 0.25%, 0.25%, 0.25%, respectively. From day 1 up to one day before the final day of the experiment, twice-daily doses of test solutions were topically given at approximately 11 AM and […]. Duplicate ear thickness measurements were made on day 0, 1, 3, 5, 8, 10 and 11 prior to any daily topical application.
The use of mice was allowed by the Committee of Experimental Animal handling of the Academic Medical Center Amsterdam. Female BALB/c mice (8-10 weeks of age) were purchased from Charles River (L′Arbresle, France) and kept in light, humidity and temperature-controlled rooms in the animal facility, 1-2 weeks before the experiment. They were fed ad libitum with water and CRM-E food van Special Diets services (SDS, Witham, Essex, UK).
Data points, obtained with test compound administration, were compared to the data, obtained with vehicle (ethanol/water 1:1) administration and were statistically processed using Welch's unpaired t-test.

[1] = tested on: IL-10 production in whole blood; assay: Effect of imidazole-derivates on the production of IL-10 in whole blood following LPS stimulation; format: cell-based; conditions: LPS stimulation (10 ng/ml), FIG. 4; for IL-10 production: 10−^4 Mol/l in whole blood
Excerpt: Effect of imidazole-derivates on the production of IL-10
IL-10 is a cytokine that dims inflammatory immune responses. […] These findings in vitro have larger significance in a complete test system as whole blood, employed here, than in a monoculture test system (FIG. 4).
FIG. 4. Effect of imidazole-derivates on the production of IL-10 in whole blood

mice = conditions: Kammeyer et al. 2004, Norval et al. 1995, Noonan and De Fabo 1992; cited from earlier work

Structure (SMILES)	sequence from high to low effectiveness, suppressive effect on P-CHS response (ear swelling) (BALB/c mice)	immunosuppressive, e.g. anti-inflammatory properties (efficacy) (BALB/c mice)	IL-10 production [1]	IL-10 production, positive control compared with the imidazole-derivates ([1]; whole blood)	contact hypersensitivity (CHS) response (mice)
CCOC(=O)Cc1c[nH]cn1 [Et-ImAc, ethyl imidazole-4-acetate]	prednisolone>ethyl imidazole-4-acetate (Et-ImAc)>imidazole-4-acetic acid (ImAc)	stronger than that of ImAc	upregulation of IL-10	–	–
NCCc1c[nH]cn1 [Histamine]	–	–	–	stronger effect on IL-10 production than the imidazole-derivates	–
O=C(O)Cc1c[nH]cn1 [ImAc, Imidazole-4-acetic acid]	ethyl imidazole-4-acetate (Et-ImAc)>imidazole-4-acetic acid (ImAc)=imidazole-4-carboxylic acid	weak to moderate immunosuppressant	upregulation of IL-10	–	suppress the contact hypersensitivity (CHS) response in mice
O=C(O)c1c[nH]cn1 [ImCOOH, imidazole-4-carboxylic acid]	–	–	upregulation of IL-10	–	–
O=C([O-])c1c[nH]cn1.[Na+] [imidazole-4-carboxylic acid, imidazole-4-carboxylic acid, sodium salt]	imidazole-4-acetic acid (ImAc)=imidazole-4-carboxylic acid	–	–	–	–
C[C@]12C=CC(=O)C=C1CC[C@@H]1[C@@H]2[C@@H](O)C[C@@]2(C)[C@H]1CC[C@]2(O)C(=O)CO [prednisolone]	prednisolone>ethyl imidazole-4-acetate (Et-ImAc)	classical strong suppressant	–	–	–
